Results: patent publication US7759369B2, “Pyridine compounds for the treatment of prostaglandin mediated diseases” (Glaxo Group Limited, priority 2004, dated 2010)
Counter-ions that a name gives are not always drawn.

Experiments:
[1] = target: T1, EP1 receptors (Homo sapiens, UniProt P34995); assay: human EP1 calcium mobilisation assay (CHO-K1 cells, PGE2, FLIPR); type: cell-based; design: expressed in transfected cells; host or cells: CHO-K1; conditions: free bases or sodium salts; averages of a number of experiments; read-out: functional pKi value, human EP1 calcium mobilisation assay (converted)
T1 sequence (P34995 1-402): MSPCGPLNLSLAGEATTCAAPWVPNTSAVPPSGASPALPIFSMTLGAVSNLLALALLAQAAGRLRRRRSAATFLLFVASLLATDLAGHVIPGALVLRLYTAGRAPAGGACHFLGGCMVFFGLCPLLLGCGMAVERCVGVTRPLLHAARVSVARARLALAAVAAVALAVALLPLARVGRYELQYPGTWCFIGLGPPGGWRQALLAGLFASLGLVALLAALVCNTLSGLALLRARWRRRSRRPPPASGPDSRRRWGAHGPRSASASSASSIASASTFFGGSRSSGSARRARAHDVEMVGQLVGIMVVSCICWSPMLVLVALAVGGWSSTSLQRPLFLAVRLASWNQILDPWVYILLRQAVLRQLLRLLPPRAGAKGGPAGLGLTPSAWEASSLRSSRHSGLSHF
Method: (§1) Briefly, the antagonist properties of compounds are assessed by their ability to inhibit the mobilisation of intracellular calcium ([Ca^2+]i) in response to activation of EP1 or EP3 receptors by the natural agonist hormone prostaglandin E2 (PGE2). Increasing concentrations of antagonist reduce the amount of calcium that a given concentration of PGE2 can mobilise. The net effect is to displace the PGE2 concentration-effect curve to higher concentrations of PGE2. The amount of calcium produced is assessed using a calcium-sensitive fluorescent dye such as Fluo-4, AM and a suitable instrument such as a Fluorimetric Imaging Plate Reader (FLIPR). Increasing amounts of [Ca^2+]i produced by receptor activation increase the amount of fluorescence produced by the dye and give rise to an increasing signal. The signal may be detected using the FLIPR instrument and the data generated may be analysed with suitable curve-fitting software.
(§2) The human EP1 or EP3 calcium mobilisation assay (hereafter referred to as ‘the calcium assay’) utilises Chinese hamster ovary-K1 (CHO-K1) cells into which a stable (pCIN; BioTechniques 20 (1996): 102-110) vector containing either EP1 or EP3 cDNA has previously been transfected. Cells are cultured in suitable flasks containing culture medium such as DMEM:F-12 supplemented with 10% v/v foetal calf serum, 2 mM L-glutamine, 0.25 mg/ml geneticin, 100 μM flurbiprofen and 10 µg/ml puromycin.
(§3) For assay, cells are harvested using a proprietary reagent that dislodges cells such as Versene. Cells are re-suspended in a suitable quantity of fresh culture media for introduction into a 384-well plate. Following incubation for 24 hours at 37° C. the culture media is replaced with a medium containing Fluo-4 and the detergent pluronic acid, and a further incubation takes place. Concentrations of compounds are then added to the plate in order to construct concentration-effect curves. This may be performed on the FLIPR in order to assess the agonist properties of the compounds. Concentrations of PGE2 are then added to the plate in order to assess the antagonist properties of the compounds.
(§4) The data so generated may be analysed by means of a computerised curve-fitting routine. The concentration of compound that elicits a half-maximal inhibition of the calcium mobilisation induced by PGE2 (pIC50) may then be estimated.

[2] = target: T2, EP3 receptors (Homo sapiens, UniProt P43115); assay: human EP3 calcium mobilisation assay (CHO-K1 cells, PGE2, FLIPR); type: cell-based; conditions: free bases or sodium salts; averages of a number of experiments; read-out: functional pKi value, human EP3 calcium mobilisation assay (converted)
T2 construct: expressed in transfected cells; host or cells: CHO-K1
T2 sequence (P43115 1-390): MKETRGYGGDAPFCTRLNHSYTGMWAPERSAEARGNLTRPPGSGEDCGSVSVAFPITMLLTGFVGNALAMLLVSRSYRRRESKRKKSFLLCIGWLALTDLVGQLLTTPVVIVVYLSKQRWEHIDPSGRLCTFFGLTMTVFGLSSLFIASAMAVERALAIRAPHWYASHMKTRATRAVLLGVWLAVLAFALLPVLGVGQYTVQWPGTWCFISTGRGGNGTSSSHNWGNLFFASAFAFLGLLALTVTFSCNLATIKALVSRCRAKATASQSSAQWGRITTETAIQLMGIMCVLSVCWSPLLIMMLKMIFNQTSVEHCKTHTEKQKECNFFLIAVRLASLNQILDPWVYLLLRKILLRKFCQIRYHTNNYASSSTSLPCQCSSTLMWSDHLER
Method: as §1, §2, §3, §4

Ki [1]	Ki [2]	SMILES
≤ 31.6 nM	–	O=C(O)c1cccc(Cc2cc(Cl)ccc2OCc2ccc(Cl)cc2F)n1 [Example 3, Sodium 6-[(5-chloro-2-{[(4-chloro-2-fluorophenyl)methyl]oxy}phenyl)methyl]-2-pyridinecarboxylate]
≤ 31.6 nM	> 10000 nM	O=C(O)c1cccc(Cc2cc(Cl)ccc2OCc2ccc(F)cc2F)n1 [Example 4, Sodium 6-[(5-chloro-2-{[(2,4-difluorophenyl)methyl]oxy}phenyl)methyl]-2-pyridinecarboxylate]
< 1000 nM	> 10000 nM	O=C(O)c1cccc(Cc2cc(Cl)ccc2OCc2cc(F)c(F)cc2F)n1 [Example 10, Sodium 6-[(5-chloro-2-{[(2,4,5-trifluorophenyl)methyl]oxy}phenyl)methyl]-2-pyridinecarboxylate]
< 1000 nM	> 10000 nM	O=C(O)c1cccc(Cc2cc(Cl)ccc2OCc2ccc(F)cc2Cl)n1 [Example 11, Sodium 6-[(5-chloro-2-{[(2-chloro-4-fluorophenyl)methyl]oxy}phenyl)methyl]-2-pyridinecarboxylate]
≤ 31.6 nM	–	O=C(O)c1cccc(Cc2cc(Cl)ccc2OCc2ccc(Cl)cc2Cl)n1 [Example 12, Sodium 6-[(5-chloro-2-{[(2,4-dichlororophenyl)methyl]oxy}phenyl)methyl]-2-pyridinecarboxylate]
< 1000 nM	–	O=C(O)c1cccc(Cc2cc(Cl)ccc2OCC2CCCC2)n1 [Example 14, Sodium 6-({5-chloro-2-[(cyclopentylmethyl)oxy]phenyl}methyl)-2-pyridinecarboxylate]
≤ 31.6 nM	> 10000 nM	O=C(NS(=O)(=O)c1ccccc1)c1cccc(Cc2cc(Cl)ccc2OCc2ccc(Cl)cc2F)n1 [Example 28, 6-[(5-chloro-2-{[(4-chloro-2-fluorophenyl)methyl]oxy}phenyl)-methyl]-N-(phenylsulphonyl)-2-pyridinecarboxamide]
≤ 31.6 nM	> 10000 nM	CS(=O)(=O)NC(=O)c1cccc(Cc2cc(Cl)ccc2OCc2ccc(Cl)cc2F)n1 [Example 29, 6-[(5-Chloro-2-{[(4-chloro-2-fluorophenyl)methyl]oxy}-phenyl)methyl]-N-(methylsulphonyl)-2-pyridinecarboxamide]
≤ 31.6 nM	> 10000 nM	CCCS(=O)(=O)NC(=O)c1cccc(Cc2cc(Cl)ccc2OCc2ccc(Cl)cc2F)n1 [Example 30, 6-[(5-Chloro-2-{[(4-chloro-2-fluorophenyl)methyl]oxy}-phenyl)methyl]-N-(propylsulphonyl)-2-pyridinecarboxamide]
< 1000 nM	–	O=C(NS(=O)(=O)c1ccc(Br)cc1)c1cccc(Cc2cc(Cl)ccc2OCc2ccc(Cl)cc2F)n1 [Example 33, N-[(4-Bromophenyl)sulphonyl]-6-[(5-chloro-2-{[(4-chloro-2-fluorophenyl)methyl]oxy}phenyl)-methyl]-2-pyridinecarboxamide]
≤ 31.6 nM	–	O=C(NS(=O)(=O)c1cccc(Br)c1)c1cccc(Cc2cc(Cl)ccc2OCc2ccc(Cl)cc2F)n1 [Example 34, N-[(3-Bromophenyl)sulphonyl]-6-[(5-chloro-2-{[(4-chloro-2-fluorophenyl)methyl]oxy}phenyl)-methyl]-2-pyridinecarboxamide]
≤ 31.6 nM	> 10000 nM	Cc1noc(C)c1S(=O)(=O)NC(=O)c1cccc(Cc2cc(Cl)ccc2OCc2ccc(Cl)cc2F)n1 [Example 36, 6-[(5-Chloro-2-{[(4-chloro-2-fluorophenyl)methyl]oxy}-phenyl)methyl]-N-[(3,5-dimethyl-4-isoxazolyl)sulphonyl]-2-pyridinecarboxamide]
≤ 31.6 nM	–	Fc1cc(Cl)ccc1COc1ccc(Cl)cc1Cc1cccc(-c2nnn[nH]2)n1 [Example 38, 2-[(5-Chloro-2-{[(4-chloro-2-fluorophenyl)methyl]oxy}phenyl)-methyl]-6-(1H-tetrazol-5-yl)pyridine]
< 1000 nM	–	Cc1ccc(C(=O)O)nc1Cc1cc(Cl)ccc1OCc1ccc(Cl)cc1F [Example 39, 6-[(5-Chloro-2-{[(4-chloro-2-fluorophenyl)methyl]oxy}-phenyl)methyl]-5-methyl-2-pyridinecarboxylic acid, sodium salt]
